Data on 17 molecules can be found in article PMC6332354 (Molecules, 2015).

One series deals with T1, rat ACC1 (Rattus norvegicus, UniProt P11497).
T1 construct: purchased Huawei Pharmaceutical Co. Ltd (Shanghai, China)
Put plainly: ACC1 in vitro assay (Kinase-Glo Plus luminescence). The settings on record: arithmetic means of three experiments, standard deviation in parentheses. Format: biochemical. How it is done: (§1) To investigate the biological activities of the synthesized compounds, the in vitro inhibitory activities of these compounds against both rat ACC1 and ACC2 were evaluated according to the previous experimental method with some changes. The ACC1 and ACC2 enzymes were supplied by Huawei Pharmaceutical Co. Ltd (Shanghai, China). […] Then, the solution was diluted with buffer solution until it reached the required concentration (1 nM to 10 μM) and 5μL of the dilution was added to a 50 μL reaction mixture containing 30 mM HEPES, pH 7.4, 2 mM MgCl2, 2 mM sodium citrate, 1 mM DTT, 25 μM ATP, 16 mM NaHCO3 and 15 μM acetyl-CoA. All of the enzymatic reactions were conducted at 30 °C for 60 min. The assay was performed using Kinase-Glo Plus luminescence kinase assay kit (Beijing, China), which measures kinase activity by quantifying the amount of ATP remaining in solution following a kinase reaction. The luminescent signal from the assay […] with the amount of kinase activity. The same concentrations of DMSO were tested in parallel and used as background control. The inhibition percentage was expressed as the average value from three independent experiments.

Series [1] has as its system human embryonic lung fibroblast (HELF) cells. The experiment in a line: In vitro cytotoxicity, MTT test. Format: cell-based. The note with it: HELF (WI-38) cells, 48 h incubation. Here is the method:
In the cytotoxicity experiment, tetrazolium-based colorimetric assay (MTT test) was used to measure the cytotoxic effect of these selected potent compounds on normal cells. Human embryonic lung fibroblast cell line (HELF, WI-38) was purchased from the Cell Resource Center, Chinese Academy of Medical Sciences (Beijing, China). Briefly, cells (5000 per well) were collected and seeded in 96-well plates. After incubation for 24 h, cells were exposed to fresh medium containing various concentrations of test compound at 37 °C. After incubation for 48 h, 20 μL of MTT tetrazolium salt dissolved in phosphate buffered saline (PBS) at a concentration of 5 mg/mL was added to each well and incubated in a CO2 incubator for 4 h. The medium was then aspirated from each well and 150 μL of DMSO was added to dissolve formazan crystals. The absorbance of each well was measured by ELx808 Microplate Reader (BioTek, Winooski, VT, USA) at a test wavelength of 490 nm. TC50, the drug concentration which reduces the cell viability by 50% was calculated by the Logit method.

A further series addresses T2, rat ACC2 (Rattus norvegicus, UniProt D3ZBE2).
T2 construct: purchased Huawei Pharmaceutical Co. Ltd (Shanghai, China)
Put plainly: ACC2 in vitro assay (Kinase-Glo Plus luminescence). Format: biochemical. The settings on record: arithmetic means of three experiments, standard deviation in parentheses. Here is the method: as §1

For another series, the system named is ACC1. Also noted: method as in PMID 12842871, PMID 25333641. The note with it: ACC1 from mammalia; read-out: IC50 against ACC1; cited from earlier work.
The test system of the next series is ACC2. Also noted: method as in PMID 12842871, PMID 25333641. The note with it: ACC2 from mammalia; read-out: IC50 against ACC2; cited from earlier work.

T2 sequence (D3ZBE2 17-2459): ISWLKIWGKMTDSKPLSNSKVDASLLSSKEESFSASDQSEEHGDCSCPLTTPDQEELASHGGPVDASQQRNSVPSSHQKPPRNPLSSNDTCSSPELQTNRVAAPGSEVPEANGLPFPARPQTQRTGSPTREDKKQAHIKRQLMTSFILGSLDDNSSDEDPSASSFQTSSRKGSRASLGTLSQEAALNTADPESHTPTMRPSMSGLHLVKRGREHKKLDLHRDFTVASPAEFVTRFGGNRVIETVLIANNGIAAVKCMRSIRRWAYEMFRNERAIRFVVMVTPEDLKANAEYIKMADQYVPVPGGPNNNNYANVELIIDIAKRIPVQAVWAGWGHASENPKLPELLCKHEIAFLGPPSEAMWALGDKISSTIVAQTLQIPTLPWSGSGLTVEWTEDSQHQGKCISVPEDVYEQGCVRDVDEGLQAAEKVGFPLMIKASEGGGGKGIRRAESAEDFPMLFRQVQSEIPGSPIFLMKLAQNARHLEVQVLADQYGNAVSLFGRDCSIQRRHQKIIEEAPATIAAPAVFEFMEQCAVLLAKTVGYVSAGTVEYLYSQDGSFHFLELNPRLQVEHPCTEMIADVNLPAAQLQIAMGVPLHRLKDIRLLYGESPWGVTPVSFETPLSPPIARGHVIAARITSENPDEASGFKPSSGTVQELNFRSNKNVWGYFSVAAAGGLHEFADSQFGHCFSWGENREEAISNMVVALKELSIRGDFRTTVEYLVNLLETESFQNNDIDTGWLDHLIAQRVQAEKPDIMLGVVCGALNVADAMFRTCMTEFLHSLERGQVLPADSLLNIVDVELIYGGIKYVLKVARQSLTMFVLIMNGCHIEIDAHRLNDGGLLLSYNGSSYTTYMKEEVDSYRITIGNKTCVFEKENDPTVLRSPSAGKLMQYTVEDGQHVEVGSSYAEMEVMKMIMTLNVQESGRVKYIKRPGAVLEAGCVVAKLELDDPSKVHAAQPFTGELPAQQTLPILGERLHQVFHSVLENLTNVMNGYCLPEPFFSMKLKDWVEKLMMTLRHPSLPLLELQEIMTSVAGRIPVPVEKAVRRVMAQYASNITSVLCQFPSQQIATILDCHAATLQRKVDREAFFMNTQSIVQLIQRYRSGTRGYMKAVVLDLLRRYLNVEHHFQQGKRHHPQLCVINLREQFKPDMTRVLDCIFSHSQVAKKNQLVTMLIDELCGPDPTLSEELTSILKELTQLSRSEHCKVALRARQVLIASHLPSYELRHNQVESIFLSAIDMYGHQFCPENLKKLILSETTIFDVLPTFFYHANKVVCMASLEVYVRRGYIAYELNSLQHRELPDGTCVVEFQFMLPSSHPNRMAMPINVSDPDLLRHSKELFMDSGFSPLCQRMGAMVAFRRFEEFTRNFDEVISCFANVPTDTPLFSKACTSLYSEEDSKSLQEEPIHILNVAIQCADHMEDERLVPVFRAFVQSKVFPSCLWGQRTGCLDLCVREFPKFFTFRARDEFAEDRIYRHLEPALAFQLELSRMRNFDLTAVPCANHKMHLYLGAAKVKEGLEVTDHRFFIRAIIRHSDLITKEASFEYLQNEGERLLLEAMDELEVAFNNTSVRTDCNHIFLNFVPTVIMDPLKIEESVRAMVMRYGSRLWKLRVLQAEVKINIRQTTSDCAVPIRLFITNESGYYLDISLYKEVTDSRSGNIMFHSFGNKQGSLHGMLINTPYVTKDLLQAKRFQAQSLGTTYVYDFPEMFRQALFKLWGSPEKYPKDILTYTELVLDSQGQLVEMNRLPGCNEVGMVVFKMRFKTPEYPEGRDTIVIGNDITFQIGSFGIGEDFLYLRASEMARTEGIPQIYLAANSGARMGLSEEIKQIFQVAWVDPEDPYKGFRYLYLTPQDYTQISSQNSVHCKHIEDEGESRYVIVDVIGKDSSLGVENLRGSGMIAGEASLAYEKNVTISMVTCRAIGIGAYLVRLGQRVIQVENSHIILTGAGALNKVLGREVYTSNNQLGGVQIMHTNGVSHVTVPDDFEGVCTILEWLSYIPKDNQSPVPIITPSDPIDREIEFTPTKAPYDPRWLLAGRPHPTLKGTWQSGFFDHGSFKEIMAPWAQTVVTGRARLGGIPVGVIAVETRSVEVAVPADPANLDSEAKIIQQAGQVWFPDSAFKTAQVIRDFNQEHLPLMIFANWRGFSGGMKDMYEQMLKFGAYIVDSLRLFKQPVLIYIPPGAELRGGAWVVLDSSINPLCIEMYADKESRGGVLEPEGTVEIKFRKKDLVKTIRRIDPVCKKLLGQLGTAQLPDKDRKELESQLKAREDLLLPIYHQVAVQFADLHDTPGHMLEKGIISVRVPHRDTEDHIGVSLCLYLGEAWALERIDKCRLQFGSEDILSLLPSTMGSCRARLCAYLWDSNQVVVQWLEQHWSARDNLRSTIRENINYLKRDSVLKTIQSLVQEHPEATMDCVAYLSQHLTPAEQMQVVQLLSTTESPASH

On to `COc1ccc(-c2cc(C(=O)N3CCC(N4CCC[C@@H](C(=O)N5CCOCC5)C4)CC3)c3ccccc3n2)cc1` [7a, (R)-(2-(4-Methoxyphenyl)quinolin-4-yl)(3-(morpholine-4-carbonyl)-[1,4′-bipiperidin]-1′-yl)methanone], for which the IC50 at rat ACC1 was 189 nM; at rat ACC2 it was 172 nM. In addition, the “TC50 (concentration which reduces the cell viability by 50%)” value in series [1] was greater than 100000 nM.

Consider `COc1ccc(-c2cc(C(=O)N3CCC(N4CCC[C@@H](C(=O)N(C)Cc5ccccc5)C4)CC3)c3ccccc3n2)cc1` [7b, (R)-N-Benzyl-1'-(2-(4-methoxyphenyl)quinoline-4-carbonyl)-N-methyl-[1,4'-bipiperidine]-3-carbox-amide], for which the melting point was 90 to 92 °C. Further, the IC50 on rat ACC1 is 750 nM. Besides, the “TC50 (concentration which reduces the cell viability by 50%)” value in series [1] was greater than 100000 nM. Besides, at rat ACC2, the IC50 is 360 nM.

On to `CCN(CC)C(=O)[C@@H]1CCCN(C2CCN(C(=O)c3cc(-c4ccc(OC)cc4)nc4ccccc34)CC2)C1` [7c, (R)-N,N-Diethyl-1'-(2-(4-methoxyphenyl)quinoline-4-carbonyl)-[1,4'-bipiperidine]-3-carboxamide], for which the melting point lay in the range of 101 to 102 °C. Also, the IC50 on rat ACC1 stood at 940 nM. Besides, the “TC50 (concentration which reduces the cell viability by 50%)” value in series [1] was greater than 100000 nM. Also, at rat ACC2, the IC50 came out at 205 nM.

Molecule `COc1ccc(-c2cc(C(=O)N3CCC(N4CCC[C@@H](C(=O)N5CCN(C)CC5)C4)CC3)c3ccccc3n2)cc1` [7d, (R)-(2-(4-Methoxyphenyl)quinolin-4-yl)(3-(4-methylpiperazine-1-carbonyl)-[1,4'-bipiperidin]-1'-yl)-methanone] returned a melting point of 108 to 110 °C. The IC50 at rat ACC1 came to 620 nM. Besides, in series [1], the “TC50 (concentration which reduces the cell viability by 50%)” value is greater than 100000 nM. In addition, the IC50 on rat ACC2 turned out to be 294 nM.

As to `COc1ccc(-c2cc(C(=O)N3CCC(N4CCC[C@@H](C(=O)N5CCCC5)C4)CC3)c3ccccc3n2)cc1` [7e, (R)-(2-(4-Methoxyphenyl)quinolin-4-yl)(3-(pyrrolidine-1-carbonyl)-[1,4'-bipiperidin]-1'-yl)methanone], the IC50 on rat ACC1 amounted to 750 nM; at rat ACC2 it was 382 nM. In addition, the “TC50 (concentration which reduces the cell viability by 50%)” value in series [1] was greater than 100000 nM.

`COc1ccc(-c2cc(C(=O)N3CCC(N4CCC[C@@H](C(=O)N5CCCCC5)C4)CC3)c3ccccc3n2)cc1` [7f, (R)-(2-(4-Methoxyphenyl)quinolin-4-yl)(3-(piperidine-1-carbonyl)-[1,4′-bipiperidin]-1′-yl)methanone] yielded a melting point of 89 to 91 °C. Also, the IC50 at rat ACC1 was greater than 1000 nM. The IC50 at rat ACC2 was 920 nM.

Regarding `O=C(c1cc(-c2ccccc2)nc2ccccc12)N1CCC(N2CCC[C@@H](C(=O)N3CCOCC3)C2)CC1` [7g, (R)-(3-(Morpholino-4-carbonyl)-[1,4'-bipiperidin]-1'-yl)(2-phenylquinolin-4-yl)methanone], the melting point lay in the range of 92 to 93 °C. Further, the half-inhibitory concentration (IC50) at rat ACC1 turned out to be 860 nM. Besides, in series [1], the “TC50 (concentration which reduces the cell viability by 50%)” value was greater than 100000 nM. The IC50 on rat ACC2 came to 810 nM.

Regarding `O=C(c1cc(-c2ccc(Cl)cc2)nc2ccccc12)N1CCC(N2CCC[C@@H](C(=O)N3CCOCC3)C2)CC1` [7h, (R)-(2-(4-Chlorophenyl)quinolin-4-yl)(3-(morpholine-4-carbonyl)-[1,4'-bipiperidin]-1'-yl)methanone], the melting point lay in the range of 87 to 89 °C. Moreover, the IC50 at rat ACC1 is greater than 1000 nM. In addition, at rat ACC2, the IC50 is greater than 1000 nM.

As to `O=C(c1cc(-c2ccccc2Cl)nc2ccccc12)N1CCC(N2CCC[C@@H](C(=O)N3CCOCC3)C2)CC1` [7i, (R)-(2-(2-Chlorophenyl)quinolin-4-yl)(3-(morpholine-4-carbonyl)-[1,4'-bipiperidin]-1'-yl)methanone], the IC50 at rat ACC1 and on rat ACC2 was greater than 1000 nM throughout.

On to `COc1ccc(-c2cc(C(=O)N3CCC4(CC3)CC(=O)c3ccccc3O4)c3ccccc3n2)cc1` [12a, 1'-(2-(4-Methoxyphenyl)quinoline-4-carbonyl)spiro[chroman-2,4'-piperidin]-4-one], for which the IC50 was determined as 600 nM on rat ACC1 and 650 nM at rat ACC2. The “TC50 (concentration which reduces the cell viability by 50%)” value in series [1] was greater than 100000 nM.

As to `COc1ccc(-c2cc(C(=O)N3CCC4(CC3)CC(=O)c3ccccc3O4)c3ccccc3n2)cc1OC` [12b, 1'-(2-(3,4-Dimethoxyphenyl)quinoline-4-carbonyl)spiro[chroman-2,4'-piperidin]-4-one], the figures for the IC50 at rat ACC1 and on rat ACC2 were 760 nM and 820 nM, respectively. For the same molecule, the “TC50 (concentration which reduces the cell viability by 50%)” value in series [1] was greater than 100000 nM.

Turning to `Cc1ccccc1-c1cc(C(=O)N2CCC3(CC2)CC(=O)c2ccccc2O3)c2ccccc2n1` [12c, 1'-(2-(o-Tolyl)quinoline-4-carbonyl)spiro[chroman-2,4'-piperidin]-4-one], the IC50 at rat ACC1 and on rat ACC2 was greater than 1000 nM in each case.

`O=C1CC2(CCN(C(=O)c3cc(-c4ccccc4Cl)nc4ccccc34)CC2)Oc2ccccc21` [12d, 1'-(2-(2-Chlorophenyl)quinoline-4-carbonyl)spiro[chroman-2,4'-piperidin]-4-one]: the half-maximal inhibitory concentration (IC50) on rat ACC1 was greater than 1000 nM; at rat ACC2 it was 940 nM.

As to `O=C1CC2(CCN(C(=O)c3cc(-c4ccc(Cl)cc4)nc4ccccc34)CC2)Oc2ccccc21` [12e, 1'-(2-(4-Chlorophenyl)quinoline-4-carbonyl)spiro[chroman-2,4'-piperidin]-4-one], the IC50 at rat ACC1 and at rat ACC2 was greater than 1000 nM throughout.

For the molecule `O=C1CC2(CCN(C(=O)c3cc(Cl)nc4ccccc34)CC2)Oc2ccccc21` [12f, 1'-(2-Chloroquinoline-4-carbonyl)spiro[chroman-2,4'-piperidin]-4-one], the IC50 on rat ACC1 and at rat ACC2 was greater than 1000 nM in each case.

In the case of `O=C1CC2(CCN(C(=O)c3cc(N4CCOCC4)nc4ccccc34)CC2)Oc2ccccc21` [12g, 1'-(2-Morpholinoquinoline-4-carbonyl)spiro[chroman-2,4'-piperidin]-4-one], the melting point fell in the range of 138 to 140 °C. Besides, at rat ACC1, the IC50 is greater than 1000 nM. For the same molecule, on rat ACC2, the IC50 is greater than 1000 nM.

For the molecule `O=C(c1c2ccccc2cc2ccccc12)N1CCC(N2CCC[C@@H](C(=O)N3CCOCC3)C2)CC1` [CP-640186, reference compound], the “TC50 (concentration which reduces the cell viability by 50%)” value in series [1] was greater than 100000 nM. The IC50 in the series with ACC1 was roughly 50 nM; on rat ACC2 it was 185 nM; in the series with ACC2, roughly 50 nM.
